Two compounds from ChEMBL document CHEMBL4808249, “Total synthesis and biological evaluation of 7-hydroxyneolamellarin A as hypoxia-inducible factor-1α inhibitor for cancer therapy” (Bioorg Med Chem Lett, 2021) can be followed below.

The source made the active and inactive calls. The rule behind the calls is not given here.

Series [1] is described as follows: Toxicity in BALB/c mouse xenografted with mouse 4T1 cells assessed as effect on heart morphology at 15 mg/kg, ip administered every 2 days starting from day 7 post-inoculation and measured on day 24 by Hematoxyin-eosin staining based analysis. It is filed as organism-based. To be noted: in vivo, 432 h, time 18 day.
A short description of series [2]: Toxicity in BALB/c mouse xenografted with mouse 4T1 cells assessed as effect on kidney morphology at 15 mg/kg, ip administered every 2 days starting from day 7 post-inoculation and measured on day 24 by Hematoxyin-eosin staining based analysis. The format is organism-based. The settings on record: in vivo, 432 h, time 18 day.
In series [3] the test system is 4T1. The series can be described thus: Antitumor activity against mouse 4T1 cells xenografted in BALB/c mouse assessed as tumor growth inhibition at 15 mg/kg, ip administered every 2 days starting from day 7 post-inoculation and measured on day 24. The format is functional, organism-based. The settings on record: time 18.0 day.
A short description of series [4]: Toxicity in BALB/c mouse xenografted with mouse 4T1 cells assessed as effect on spleen morphology at 15 mg/kg, ip administered every 2 days starting from day 7 post-inoculation and measured on day 24 by Hematoxyin-eosin staining based analysis. It is filed as organism-based. The settings on record: in vivo, 432 h, time 18 day.
The nature of series [5]: Toxicity in BALB/c mouse xenografted with mouse 4T1 cells assessed as effect on body weight at 15 mg/kg, ip administered every 2 days starting from day 7 post-inoculation and measured on day 24. The format is organism-based. To be noted: in vivo, 432 h, time 18 day.
Series [6] in a line: Toxicity in BALB/c mouse xenografted with mouse 4T1 cells assessed as effect on liver morphology at 15 mg/kg, ip administered every 2 days starting from day 7 post-inoculation and measured on day 24 by Hematoxyin-eosin staining based analysis. It is filed as organism-based. The settings on record: in vivo, 432 h, time 18 day.
Series [7] has as its system 4T1. The experiment in a line: Antitumor activity against mouse 4T1 cells xenografted in BALB/c mouse assessed as tumor growth inhibition at 15 mg/kg, iv administered every 2 days starting from day 7 post-inoculation and measured on day 24. The format is functional, organism-based. To be noted: time 18.0 day.
The subject of series [8] is HeLa. The experiment in a line: Cytotoxicity against human HeLa cells assessed as cell viability at 6.3 to 150 umol/L incubated under hypoxia condition for 24 hrs by MTT assay. The format is cell-based. The settings on record: dose 6.3-150 µmol/L. For orientation: Tetrazolium assays rely on reduction of a dye to a coloured formazan, in cell work by metabolically active cells.

The test system of series [9] is 4T1. The series can be described thus: Downregulation of HIF-1alpha expression in mouse 4T1 cells at 50 to 150 umol/L incubated under hypoxia condition for 4 hrs by Western blot analysis. The settings on record: dose 50-150 µmol/L. It is filed as functional, cell-based. (Immunoblotting shows a protein as a band on a membrane.)
The subject of series [10] is HeLa. The series can be described thus: Downregulation of HIF-1 alpha expression in human HeLa cells at 100 to 150 umol/L incubated under hypoxia conditions for 4 hrs in presence of proteasome inhibitor, MG132 by Western blot analysis. It is filed as functional, cell-based. The settings on record: dose 100-150 µmol/L.
In series [11] the test system is HeLa. The series can be described thus: Downregulation of HIF-1 alpha expression in human HeLa cells assessed as half life of the protein at 150 umol/L incubated under CoCl2-stimulated hypoxia conditions for 4 hrs followed by incubation with compound and protein translation inhibitor, CHX under normoxia conditions for 240 mins by Western blot analysis (reference value: 33.4 mins). The format is functional, cell-based. To be noted: dose 150.0 µmol/L.

Series [12] deals with HeLa. The experiment in a line: Cytotoxicity against human HeLa cells assessed as cell viability at 6.3 to 150 umol/L incubated under normoxic conditions for 24 hrs by MTT assay. The format is cell-based. To be noted: dose 6.3-150 µmol/L.
In series [13] the target is T1, Hypoxia-inducible factor 1-alpha (Homo sapiens, UniProt Q16665). The series can be described thus: Inhibition of HIF-1alpha in human HeLa cells transfected with HRE-driven firefly luciferase gene pretreated with compound followed by incubation under normoxic condition for 1 hr followed by hypoxic condition for 12 hrs by dual luciferase reporter gene assay. It is filed as cell-based.

Series [14] concerns HeLa. The experiment in a line: Inhibition of colony formation in human HeLa cells incubated under hypoxia condition for 10 days. The format is functional, cell-based. The settings on record: dose 5-50 µmol/L, time 10.0 day.
Series [15] concerns HeLa. The series can be described thus: Downregulation of HIF-1alpha expression in human HeLa cells at 50 to 150 umol/L incubated under hypoxia condition for 4 hrs by immunofluorescence analysis. The format is functional, cell-based. The settings on record: dose 50-150 µmol/L.
Series [16] deals with HeLa. The series can be described thus: Downregulation of HIF-1beta expression in human HeLa cells at 50 to 150 umol/L incubated under hypoxia conditions for 4 hrs by western blot analysis. The format is functional, cell-based. The settings on record: dose 50-150 µmol/L.
The nature of series [17]: Toxicity in BALB/c mouse xenografted with mouse 4T1 cells assessed as effect on kidney morphology at 15 mg/kg, iv administered every 2 days starting from day 7 post-inoculation and measured on day 24 by Hematoxyin-eosin staining based analysis. It is filed as organism-based. To be noted: in vivo, 432 h, time 18 day.
Series [18] has as its system HeLa. The series can be described thus: Antiinvasive activity in human HeLa cells assessed as inhibition of cell invasion at 50 to 150 umol/L incubated under hypoxia condition for 36 hrs by transwell invasion assay. The format is functional, cell-based. To be noted: dose 50-150 µmol/L.
The nature of series [19]: Toxicity in BALB/c mouse xenografted with mouse 4T1 cells assessed as effect on liver morphology at 15 mg/kg, iv administered every 2 days starting from day 7 post-inoculation and measured on day 24 by Hematoxyin-eosin staining based analysis. The settings on record: in vivo, 432 h, time 18 day. The format is organism-based.
For series [20], the system named is HeLa. The series can be described thus: Downregulation of HIF-1 alpha expression in human HeLa cells at 50 to 150 umol/L incubated under normoxia conditions for 4 hrs in presence of CoCl2 by Western blot analysis. The format is functional, cell-based. The settings on record: dose 50-150 µmol/L.
For the next series, the system named is HUVEC. The series can be described thus: Inhibition of angiogenesis in human HUVEC cells assessed as disruption of tube formation at 150 umol/L incubated under hypoxia condition for 6 hrs by Matrigel based analysis. The format is functional, cell-based. To be noted: dose 150.0 µmol/L.
Series [21] is described as follows: Toxicity in BALB/c mouse xenografted with mouse 4T1 cells assessed as effect on heart morphology at 15 mg/kg, iv administered every 2 days starting from day 7 post-inoculation and measured on day 24 by Hematoxyin-eosin staining based analysis. To be noted: in vivo, 432 h, time 18 day. It is filed as organism-based.
Series [22] in a line: Toxicity in BALB/c mouse xenografted with mouse 4T1 cells assessed as effect on body weight at 15 mg/kg, iv administered every 2 days starting from day 7 post-inoculation and measured on day 24. It is filed as organism-based. The settings on record: in vivo, 432 h, time 18 day.
A short description of series [23]: Toxicity in BALB/c mouse xenografted with mouse 4T1 cells assessed as effect on spleen morphology at 15 mg/kg, iv administered every 2 days starting from day 7 post-inoculation and measured on day 24 by Hematoxyin-eosin staining based analysis. The settings on record: in vivo, 432 h, time 18 day. The format is organism-based.
In series [24] the target is T1, Hypoxia-inducible factor 1-alpha. The series can be described thus: Inhibition of HIF-1alpha in human HeLa cells assessed as reduction in VEGF mRNA level incubated under hypoxia condition for 12 hrs by RT-PCR analysis. The settings on record: dose 25-100 µmol/L. The format is cell-based.
Target sequence in this assay (Q16665 whole entry, looked up): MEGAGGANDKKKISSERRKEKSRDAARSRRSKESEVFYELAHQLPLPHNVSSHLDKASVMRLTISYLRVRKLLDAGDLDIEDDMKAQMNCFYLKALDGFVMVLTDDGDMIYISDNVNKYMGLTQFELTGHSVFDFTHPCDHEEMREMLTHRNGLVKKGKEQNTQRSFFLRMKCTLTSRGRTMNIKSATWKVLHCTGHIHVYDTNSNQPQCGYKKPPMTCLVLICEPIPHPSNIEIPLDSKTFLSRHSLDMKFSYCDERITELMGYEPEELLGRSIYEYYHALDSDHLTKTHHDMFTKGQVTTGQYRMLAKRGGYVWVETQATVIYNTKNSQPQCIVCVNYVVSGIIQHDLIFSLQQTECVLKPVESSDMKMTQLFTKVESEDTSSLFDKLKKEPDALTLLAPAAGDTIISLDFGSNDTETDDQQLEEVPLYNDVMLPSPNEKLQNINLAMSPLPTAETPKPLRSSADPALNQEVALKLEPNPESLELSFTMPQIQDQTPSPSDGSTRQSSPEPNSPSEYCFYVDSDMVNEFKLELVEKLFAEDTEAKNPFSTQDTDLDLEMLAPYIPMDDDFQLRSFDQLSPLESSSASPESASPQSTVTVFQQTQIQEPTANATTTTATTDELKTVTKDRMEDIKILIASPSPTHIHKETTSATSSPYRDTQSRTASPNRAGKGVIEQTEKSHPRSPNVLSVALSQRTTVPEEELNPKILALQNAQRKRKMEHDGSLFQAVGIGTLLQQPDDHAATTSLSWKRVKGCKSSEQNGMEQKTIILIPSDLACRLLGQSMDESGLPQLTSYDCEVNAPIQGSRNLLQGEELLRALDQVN
For another series, the system named is MCF7. The experiment in a line: Downregulation of HIF-1alpha expression in human MCF7 cells at 50 to 150 umol/L incubated under hypoxia condition for 4 hrs by Western blot analysis. It is filed as functional, cell-based. To be noted: dose 50-150 µmol/L.
Series [25] has as its system HeLa. The series can be described thus: Inhibition of cell migration in human HeLa cells at 10 to 50 umol/L incubated under hypoxia condition for 36 hrs by wound healing assay. The format is functional, cell-based. The settings on record: dose 10-50 µmol/L.
For series [26], the system named is HeLa. The series can be described thus: Downregulation of HIF-1 alpha expression in human HeLa cells at 50 to 150 umol/L incubated under hypoxia conditions for 4 hrs by Western blot analysis. It is filed as functional, cell-based. The settings on record: dose 50-150 µmol/L.
In series [27] the test system is 4T1. The series can be described thus: Downregulation of HIF-1alpha protein expression in tumor tissue of BALB/c mouse xenografted with mouse 4T1 cells at 15 mg/kg, iv administered every 2 days starting from day 7 post-inoculation and measured on day 24 by immunofluorescence analysis. The format is functional, organism-based. To be noted: time 18.0 day.

For `C=CCNC1=C2C[C@@H](C)C[C@H](OC)[C@H](O)[C@@H](C)/C=C(\C)[C@H](OC(N)=O)[C@@H](OC)/C=C\C=C(/C)C(=O)NC(=CC1=O)C2=O` (stereo in doubt) [TANESPIMYCIN], the Activity result in series [1], in series [2], in series [4], in series [5] and in series [6] was “Non-Toxic” throughout. Besides, in the series with 4T1 [3], the outcome was Active.
`O=C(C(O)c1ccc(O)cc1)n1cc(-c2ccc(O)cc2)c(-c2ccc(O)cc2)c1` (stereo not given) [7-(R/S)-HYDROXYLAMELLARIN A]: the result in the series on 4T1 [7] and in the series on HeLa [18] was Active. Moreover, the Activity entry (with HeLa [8]; in the series with HeLa [12]; in series [17]; in series [19]; in series [21]; in series [22]) was “Non-Toxic” throughout. For the same compound, the Activity entry in series [23] is on record as “Non-Toxic”. Further, the inhibition entry in the series with 4T1 [9], in the series with HeLa [10], in the series on HeLa [15], in the series with HeLa [20], in the series with HUVEC and in the series on MCF7 was “Active” throughout. The inhibition result in the series with HeLa [25], with HeLa [26] and in the series on 4T1 [27] was “Active” in each case. The T1/2 with HeLa [11] is 10.4 min. The IC50 in [13] was 23 µM. Moreover, the inhibition result (in [13] (time 13.0 hrs); in the series on HeLa [14]; in [24]) was “Dose-Dependent Effect” in each case. In the series on HeLa [16], the inhibition entry is “inactive”.

In general, IC50 refers to the point on the concentration scale where inhibition reaches its midpoint.
